Measured values from patent US11008334B2, “Compositions and methods for treating cancer” (The Regents of the University of California, priority 2012, dated 2021).
Where two headings read alike, the source gives them in different places.

Legend:
K-RasG12C (1-169) [1] = target: T1, K-RasG12C (1-169) (Homo sapiens, UniProt P01116, G12C); test: Disulfide library (tethering) screen, covalent modification by mass spectrometry; type: binding; details: 200 micM BME; read-out: Potency/ Labeling (EC50 at 200 micM BME) Tethering
T1 construct: Un-tagged recombinant K-Ras G12C (1-169) at 4 μM in Buffer A; hexahistidine (cleaved yes); made in house; host or cells: Escherichia coli BL21 (DE)

G12C cell lines = test: Proliferation of human lung cancer cell lines; type: cell-based; details: 24 hr treatment (0.5% FBS), 48 hr washout (10% FBS)
K-RasG12C (1-169) [2] = target: T1, K-RasG12C (1-169); test: Mass spectrometric screen for extent of covalent labeling; type: binding; details: for percent covalent labeling at 10 µM: 10 micromolar; for Labeling % (10 micM) 24h: 10 micM compound, (plate) or (single) measurement
Description: Un-tagged recombinant K-Ras G12C (1-169) at 4 μM in Buffer A was reacted with inhibitors at 200 μM or 10 μM (2% DMSO final). At 2, 6, and 24 hrs, 10 μL aliquots were removed and the reactions were stopped by addition of 1 μL 2% formic acid. The extent of modification was determined by mass spectrometry.

[3] = system: binding of RasGTP to Raf1-RBD; test: Raf1-RBD pull-downs; details: after EDTA-catalyzed exchange
[4] = 6 h, 6 hrs, read-out: Percent reduction in activity of compound at 10 micromolar relative to control (no compound), 6 hrs
[5] = 24 h, 24 hrs, read-out: Percent reduction in activity of compound at 10 micromolar relative to control (no compound), 24 hrs
[6] = 2 h, 2 hrs, read-out: Percent reduction in activity of compound at 10 micromolar relative to control (no compound), 2 hrs

| EC50 (K-RasG12C (1-169) [1]) | percent covalent labeling at 10 µM (K-RasG12C (1-169) [2]; [4]) | percent covalent labeling at 10 µM (K-RasG12C (1-169) [2]; [5]) | percent covalent labeling at 10 µM (K-RasG12C (1-169) [2]; [6]) | Labeling % (10 micM) 24h (K-RasG12C (1-169) [2]) | Labeling % (10 micM) 24h (K-RasG12C (1-169) [2]; Table 5) | SMILES | sensitivity of proliferation of G12C cell lines (G12C cell lines) | binding of RasGTP to Raf1-RBD [3] |
| --- | --- | --- | --- | --- | --- | --- | --- | --- |
| 40 to 60 µM |  |  |  |  |  | O=C(NCCS)C1CCN(C(=O)COc2ccc(Cl)cc2Cl)CC1 [JO-01-148] |  |  |
|  | ≤ 5% | ≤ 5% | ≤ 5% |  |  | C=CS(=O)(=O)NC1CCN(C(=O)COc2ccc(Cl)cc2CN)CC1 [Ras-032] |  |  |
|  | ≤ 5% | ≤ 5% | ≤ 5% |  |  | C=CC(=O)NC1CCN(C(=O)CCn2cnc3ccccc32)CC1 [Ras-005] |  |  |
|  | ≤ 5% | 5 to 20% | ≤ 5% |  |  | C=CC(=O)N1CC[C@H](NC(=O)CNc2cc(Cl)c(Cl)cc2I)C1 [JO-02-157B (S)] |  |  |
|  | ≤ 5% | ≤ 5% | ≤ 5% |  |  | C=CS(=O)(=O)NCC(=O)Nc1cc(-c2ccc(Cl)cc2)n[nH]1 [JO-02-139E] |  |  |
|  | ≤ 5% | ≤ 5% | ≤ 5% |  |  | C=CS(=O)(=O)NC1CCN(C(=O)COc2ccc(Cl)cc2C#N)CC1 [Ras-021] |  |  |
|  | ≤ 5% | 20 to 40% | ≤ 5% | +++ (single) (20%< +++ <=40%) | +++ (single) (20%< +++ <=40%) | C=CC(=O)N1CCN(C(=O)CNc2cc(Cl)c(Cl)cc2OC)CC1 [Ras-062] |  |  |
|  | ≤ 5% | 5 to 20% | ≤ 5% |  |  | C=CS(=O)(=O)NC1CCN(C(=O)COc2cc(N(C)C)c(Cl)cc2Cl)CC1 [Ras-026] |  |  |
|  | ≤ 5% | ≤ 5% | ≤ 5% |  |  | C=CS(=O)(=O)NC1CCN(CC(=O)Nc2cc(Cl)c(Cl)cc2I)CC1 [Ras-068] |  |  |
|  | ≤ 5% | ≤ 5% | ≤ 5% |  |  | C=CS(=O)(=O)NC1CCN(C(=O)CSc2nc3cc(C)ccc3[nH]2)CC1 [UP-I-160B] |  |  |
|  | ≤ 5% | ≤ 5% | ≤ 5% |  |  | C=CS(=O)(=O)NC1CCN(C(=O)COc2ccc(Cl)cc2N)CC1 [Ras-033] |  |  |
|  | ≤ 5% | 20 to 40% | ≤ 5% |  |  | C=CS(=O)(=O)NC1CCN(C(=O)COc2cc(Cl)c(Cl)cc2Cl)CC1 [JO-02-115D] |  |  |
|  | ≤ 5% | ≤ 5% | ≤ 5% |  |  | C=CS(=O)(=O)NC1CCN(C(=O)COc2cc(C(=O)NCCO)c(Cl)cc2Cl)CC1 [Ras-049] |  |  |
|  | ≤ 5% | ≤ 5% | ≤ 5% |  |  | O=C(NC1CCN(C(=O)COc2ccc(Cl)cc2Cl)CC1)C1CO1 (stereo not drawn) [JO-02-72] |  |  |
|  | ≤ 5% | 5 to 20% | ≤ 5% |  |  | C=CS(=O)(=O)NC1CCN(C(=O)COc2ccc(Cl)cc2C=O)CC1 [Ras-042] |  |  |
|  | ≤ 5% | ≤ 5% | ≤ 5% |  |  | C=CC(=O)NCCNC(=O)COc1ccc(Cl)cc1Cl [JO-02-37A] |  |  |
|  | ≤ 5% | 5 to 20% | ≤ 5% |  |  | C=CS(=O)(=O)C1CCC2(CC1)CCN(C(=O)COc1ccc(Cl)cc1Cl)C2 (stereo not drawn) [JO-02-112B] |  |  |
|  | 20 to 40% | > 60% |  |  |  | C=CS(=O)(=O)NC1CCN(C(=O)CNc2cc(-c3ccccc3)c(Cl)cc2OC)CC1 [Ras-082] |  |  |
|  | ≤ 5% | 20 to 40% | ≤ 5% |  |  | C=CS(=O)(=O)NC1CCN(C(=O)COc2ccc(Cl)cc2Br)CC1 [Ras-015] |  |  |
|  | ≤ 5% | ≤ 5% | ≤ 5% |  |  | C=CS(=O)(=O)NC1CCN(C(=O)CSc2nnc(C)o2)CC1 [UP-I-164B] |  |  |
|  | 5 to 20% | 20 to 40% | ≤ 5% |  |  | C=CS(=O)(=O)NC1CCN(C(=O)COc2cc(Cl)c(Cl)cc2O)CC1 [Ras-063] |  |  |
|  | ≤ 5% | > 60% | ≤ 5% |  |  | C=CS(=O)(=O)NC1CCN(C(=O)COc2c(Br)cc(Br)c3c2OC(C)(C)O3)CC1 [UP-I-177D] |  |  |
|  | ≤ 5% | ≤ 5% | ≤ 5% |  |  | C=CS(=O)(=O)NC1CCN(C(=O)COc2cc(C(=O)O)c(Cl)cc2Cl)CC1 [Ras-038] |  |  |
|  | ≤ 5% | ≤ 5% | ≤ 5% |  |  | C=CS(=O)(=O)Nc1cc(-c2cccs2)n[nH]1 [JO-02-38B] |  |  |
|  | ≤ 5% | ≤ 5% | ≤ 5% |  |  | O=C(COc1ccc(Cl)cc1Cl)N1CCC(NCC2CO2)CC1 (stereo not drawn) [JO-02-77A] |  |  |
|  | 5 to 20% | 40 to 60% | ≤ 5% |  |  | C=CS(=O)(=O)NC1CCN(C(=O)COc2cc(I)c(Cl)cc2Cl)CC1 [Ras-036] |  |  |

| SMILES | EC50 (K-RasG12C (1-169) [1]) | percent covalent labeling at 10 µM (K-RasG12C (1-169) [2]; [4]) | percent covalent labeling at 10 µM (K-RasG12C (1-169) [2]; [5]) | percent covalent labeling at 10 µM (K-RasG12C (1-169) [2]; [6]) | Labeling % (10 micM) 24h (K-RasG12C (1-169) [2]) | Labeling % (10 micM) 24h (K-RasG12C (1-169) [2]; Table 5) | sensitivity of proliferation of G12C cell lines (G12C cell lines) | binding of RasGTP to Raf1-RBD [3] |
| --- | --- | --- | --- | --- | --- | --- | --- | --- |
| C=CC(=O)N1CCN(C(=O)CNc2cc(I)c(Cl)cc2O)CC1 [Ras-083] |  | 20 to 40% | > 60% |  |  |  | significantly more sensitive | impairs binding of RasGTP to Raf1-RBD |
